In paper PMC2784637 (Biochemistry, 2009):

Target: T1, cyt bc1 (ubihydroquinone:cytochrome c oxidoreductase) (Rhodobacter capsulatus, UniProt D5ANZ2+D5ANZ3)
T1 sequence (D5ANZ3 2-437): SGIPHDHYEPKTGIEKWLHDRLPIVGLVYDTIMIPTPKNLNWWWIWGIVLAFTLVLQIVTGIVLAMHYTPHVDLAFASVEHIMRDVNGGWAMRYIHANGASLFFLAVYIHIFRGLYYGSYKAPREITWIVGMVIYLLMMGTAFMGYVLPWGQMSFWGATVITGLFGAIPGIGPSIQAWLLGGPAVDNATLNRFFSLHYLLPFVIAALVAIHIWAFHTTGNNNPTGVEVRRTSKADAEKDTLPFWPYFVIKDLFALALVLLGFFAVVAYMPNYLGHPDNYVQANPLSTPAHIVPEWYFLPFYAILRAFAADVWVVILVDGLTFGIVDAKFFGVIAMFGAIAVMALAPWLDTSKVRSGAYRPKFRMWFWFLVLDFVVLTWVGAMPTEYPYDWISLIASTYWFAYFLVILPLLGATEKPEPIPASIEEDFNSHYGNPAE
T1 sequence (D5ANZ2 1-191): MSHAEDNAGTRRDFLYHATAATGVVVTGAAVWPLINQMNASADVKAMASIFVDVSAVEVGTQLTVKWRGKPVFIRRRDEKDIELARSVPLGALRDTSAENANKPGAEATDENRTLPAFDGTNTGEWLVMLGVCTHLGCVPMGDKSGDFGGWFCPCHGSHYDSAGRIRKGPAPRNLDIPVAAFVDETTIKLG
T1 sequence (D5ANZ4 22-279 partner): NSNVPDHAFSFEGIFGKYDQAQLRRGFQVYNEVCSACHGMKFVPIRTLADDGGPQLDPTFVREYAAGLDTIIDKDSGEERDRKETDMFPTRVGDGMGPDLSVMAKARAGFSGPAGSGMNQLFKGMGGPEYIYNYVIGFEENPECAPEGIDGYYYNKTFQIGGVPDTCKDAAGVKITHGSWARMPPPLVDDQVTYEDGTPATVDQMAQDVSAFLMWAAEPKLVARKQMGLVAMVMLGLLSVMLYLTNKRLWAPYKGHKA
Test: light-activated cyt b reduction and cyt c rereduction kinetics
Format: biochemical
Conditions: chromatophore membranes, 10 uM, pH 7.0, Eh 100 mV; Qo site

CO/C(=C/C(N)=O)[C@H](C)[C@H](/C=C/c1csc(-c2csc([C@@H](C)/C=C/C=C/C(C)C)n2)n1)OC [myxothiazol]
light-activated cyt b reduction and cyt c rereduction kinetics: addition of myxothiazol completely abolished the kinetics by displacing the Qo site occupant
